Measurements from ChEMBL document CHEMBL5500393, “Discovery and Optimization of Novel SaFabI Inhibitors as Specific Therapeutic Agents for MRSA Infection” (J Med Chem, 2024).
≈ marks a conversion by molar mass, not a printed value. Calls of active or inactive are those of the source. The calls are words filed in the database; no cut-off is given here.

Legend:
Staphylococcus aureus [1] = assay: In vivo antibacterial activity against methicilin-resistant Staphylococcus aureus ATCC33591 infected in BALB/c mouse skin infection model assessed as reduction in skin lesions at 5 mg/kg administered daily for 4 days (reference value: 50.1 mm2); type: functional; conditions: time 4 day
Pseudomonas aeruginosa = assay: Antimicrobial activity against Pseudomonas aeruginosa PAO1 measured after 24 hrs by CLSI protocol based microdilution method; type: functional
[2] = Metabolic stability in mouse liver microsomes assessed as half life at 1 uM measured upto 120 mins in presence of NADPH by LC-MS analysis; type: ADME, Microsome
[3] = Half life in female Sprague-Dawley rat at 20 mg/kg, po measured upto 24 hrs by LC-MS analysis; type: ADME, organism-based; conditions: in vivo
[4] = AUC (0 to t) in female Sprague-Dawley rat at 5 mg/kg, iv measured upto 24 hrs by LC-MS analysis; type: ADME, organism-based; conditions: in vivo
[5] = Tmax in female Sprague-Dawley rat at 20 mg/kg, po measured upto 24 hrs by LC-MS analysis; type: ADME, organism-based; conditions: in vivo
Staphylococcus aureus [6] = assay: In vivo antibacterial activity against methicilin-resistant Staphylococcus aureus ATCC33591 infected in BALB/c mouse skin infection model assessed as normal morphology at 5 mg/kg administered daily for 4 days by H and E staining based analysis; type: functional, organism-based; conditions: time 4.0 day
Staphylococcus aureus [7] = assay: Antimicrobial activity against […] Staphylococcus aureus USA300 measured after 24 hrs by CLSI protocol based microdilution method; type: functional
Staphylococcus aureus [8] = assay: In vivo antibacterial activity against methicilin-resistant Staphylococcus aureus ATCC33591 infected in BALB/c mouse skin infection model assessed as reduction in area of injury at 5 mg/kg administered daily for 4 days by H and E staining based analysis; type: functional, organism-based; conditions: time 4.0 day
[9] = target: T1, Enoyl-[acyl-carrier-protein] reductase [NADPH] FabI (Staphylococcus aureus, UniProt Q6GI75); assay: Inhibition of N-terminal his 6 tagged Staphylococcus aureus Fabi (1 to […] residues) expressed in Escherichia coli BL21 incubated for 30 mins in presence of NADPH by fluorescence based microplate reader analysis
T1 sequence (Q6GI75 whole entry): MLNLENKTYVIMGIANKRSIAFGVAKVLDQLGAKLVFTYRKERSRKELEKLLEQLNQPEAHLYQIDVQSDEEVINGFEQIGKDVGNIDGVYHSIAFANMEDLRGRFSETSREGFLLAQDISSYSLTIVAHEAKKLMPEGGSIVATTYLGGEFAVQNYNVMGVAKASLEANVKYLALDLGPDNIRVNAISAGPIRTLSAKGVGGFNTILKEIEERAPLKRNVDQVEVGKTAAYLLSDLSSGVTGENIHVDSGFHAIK

Staphylococcus aureus [10] = assay: In vivo antibacterial activity against methicilin-resistant Staphylococcus aureus ATCC33591 infected in BALB/c mouse skin infection model assessed as reduction in number of inflammatory cells at 5 mg/kg administered daily for 4 days by H and E staining based analysis; type: functional, organism-based; conditions: time 4.0 day
Staphylococcus aureus [11] = assay: Antimicrobial activity against wild type Staphylococcus aureus RN4220 measured after 24 hrs by CLSI protocol based microdilution method; type: functional
[12] = Clearance in female Sprague-Dawley rat at 5 mg/kg, iv measured upto 24 hrs by LC-MS analysis; type: ADME, organism-based; conditions: in vivo
Staphylococcus aureus [13] = assay: Antimicrobial activity against methicillin-susceptible Staphylococcus aureus ATCC29213 measured after 24 hrs by CLSI protocol based microdilution method; type: functional
[14] = AUC (0 to t) in female Sprague-Dawley rat at 20 mg/kg, po measured upto 24 hrs by LC-MS analysis; type: ADME, organism-based; conditions: in vivo
Staphylococcus aureus [15] = assay: Antimicrobial activity against Staphylococcus aureus RN4220 harbouring pCM-sfgfp::fabi (promoter fabi) measured after 24 hrs by CLSI protocol based microdilution method; type: functional
[16] = Metabolic stability in human liver microsomes assessed as half life at 1 uM measured upto 120 mins in presence of NADPH by LC-MS analysis; type: ADME, Microsome
Staphylococcus aureus [17] = assay: Antimicrobial activity against […] Staphylococcus aureus NRS271 measured after 24 hrs by CLSI protocol based microdilution method; type: functional
[18] = Metabolic stability in mouse liver microsomes assessed as intrinsic clearance at 1 uM measured upto 120 mins in presence of NADPH by LC-MS analysis; type: ADME, Microsome; conditions: read-out: CLH
Staphylococcus aureus [19] = assay: Bactericidal activity against […] Staphylococcus aureus ATCC33591 assessed as log reduction in bacterial count measured within 24 hrs by time-kill assay; type: functional
[20] = Cmax in female Sprague-Dawley rat at 5 mg/kg, iv measured upto 24 hrs by LC-MS analysis; type: ADME, organism-based; conditions: in vivo
Staphylococcus aureus [21] = assay: In vivo antibacterial activity against methicilin-resistant Staphylococcus aureus ATCC33591 infected in BALB/c mouse skin infection model assessed as normal skin structure at 5 mg/kg administered daily for 4 days by H and E staining based analysis; type: functional, organism-based; conditions: time 4.0 day
[22] = Cmax in female Sprague-Dawley rat at 20 mg/kg, po measured upto 24 hrs by LC-MS analysis; type: ADME, organism-based; conditions: in vivo
Enterococcus faecium = assay: Antimicrobial activity against Enterococcus faecium ATCC19434 measured after 24 hrs by CLSI protocol based microdilution method; type: functional
Staphylococcus aureus [23] = assay: Antimicrobial activity against Staphylococcus aureus RN4220 harbouring pCM-sfgfp::fabi (promoter-sarA) measured after 24 hrs by CLSI protocol based microdilution method; type: functional
Staphylococcus aureus [24] = assay: Antimicrobial activity against methicillin-susceptible Staphylococcus aureus ATCC25923 measured after 24 hrs by CLSI protocol based microdilution method; type: functional
Staphylococcus aureus [25] = assay: Antimicrobial activity against […] Staphylococcus aureus ATCC33591 measured after 24 hrs by CLSI protocol based microdilution method; type: functional
Staphylococcus aureus [26] = assay: Antimicrobial activity against […] Staphylococcus aureus ATCC33591 assessed as reduction in lipid content measured after 4 hrs by microplate reader based analysis; type: functional
Staphylococcus aureus [27] = assay: Antimicrobial activity against […] Staphylococcus aureus ATCC43300 measured after 24 hrs by CLSI protocol based microdilution method; type: functional
Staphylococcus aureus [28] = assay: In vivo antibacterial activity against methicilin-resistant Staphylococcus aureus ATCC33591 infected in BALB/c mouse skin infection model assessed as log reduction in bacterial count at 5 mg/kg administered daily for 4 days; type: functional; conditions: time 4 day
Enterococcus faecalis = assay: Antimicrobial activity against Enterococcus faecalis ATCC29212 measured after 24 hrs by CLSI protocol based microdilution method; type: functional
Staphylococcus aureus [29] = assay: In vivo antibacterial activity against methicilin-resistant Staphylococcus aureus ATCC33591 infected in BALB/c mouse skin infection model assessed as reduction in bacterial load at 5 mg/kg administered daily for 4 days; type: functional; conditions: time 4 day
Candida albicans = assay: Antimicrobial activity against Candida albicans SC5314 measured after 48 hrs by CLSI protocol based microdilution method; type: functional
[30] = Oral bioavailability in female Sprague-Dawley rat at 20 mg/kg measured upto 24 hrs by LC-MS analysis; type: ADME, organism-based; conditions: in vivo
Acinetobacter baumannii = assay: Antimicrobial activity against Acinetobacter baumannii ATCC19606 measured after 24 hrs by CLSI protocol based microdilution method; type: functional
Staphylococcus aureus [31] = assay: Antimicrobial activity against Staphylococcus aureus RN4220 harbouring pCM-sfgfp measured after 24 hrs by CLSI protocol based microdilution method; type: functional
Staphylococcus aureus [32] = assay: In vivo antibacterial activity against methicilin-resistant Staphylococcus aureus ATCC33591 infected in BALB/c mouse skin infection model assessed as restoration of cell morphology at 5 mg/kg administered daily for 4 days by H and E staining based analysis; type: functional, organism-based; conditions: time 4.0 day
[33] = Clearance in female Sprague-Dawley rat at 20 mg/kg, po measured upto 24 hrs by LC-MS analysis; type: ADME, organism-based; conditions: in vivo
Staphylococcus aureus [34] = assay: In vivo antibacterial activity against methicilin-resistant Staphylococcus aureus ATCC33591 infected in BALB/c mouse skin infection model assessed as decrease in lesion size at 5 mg/kg administered daily for 4 days (reference value: 43.4 mm2); type: functional; conditions: time 4 day
Staphylococcus aureus [35] = assay: Antimicrobial activity against […] Staphylococcus aureus ATCC33591 assessed as frequency of spontaneous resistance at 8 times MIC measured after 48 hrs by; type: functional
[36] = Half life in female Sprague-Dawley rat at 5 mg/kg, iv measured upto 24 hrs by LC-MS analysis; type: ADME, organism-based; conditions: in vivo
Escherichia coli = assay: Antimicrobial activity against Escherichia coli ATCC25922 measured after 24 hrs by CLSI protocol based microdilution method; type: functional
Staphylococcus aureus [37] = assay: Antimicrobial activity against […] Staphylococcus aureus ATCC33591 assessed as frequency of spontaneous resistance at 16 times MIC measured after 48 hrs by; type: functional
[38] = Metabolic stability in human liver microsomes assessed as intrinsic clearance at 1 uM measured upto 120 mins in presence of NADPH by LC-MS analysis; type: ADME, Microsome; conditions: read-out: CLH
Staphylococcus aureus [39] = assay: Antimicrobial activity against […] Staphylococcus aureus ATCC33591 assessed as frequency of spontaneous resistance at 4 times MIC measured after 48 hrs by; type: functional

Cc1c(CN(C)C(=O)/C=C/c2cnc3c(c2)CCC(=O)N3)oc2ccccc12 [AFN-1252]
Activity (Staphylococcus aureus [1]): 13.7 mm2 | MIC (Pseudomonas aeruginosa): > 32 µg/mL | half-life at 1 µM [2]: 17.1 min | t1/2 [3]: 432 min | AUCt [4]: 2713.1 ng·h/mL | Tmax [5]: 60 min | Activity (Staphylococcus aureus [6]): Active | MIC (Staphylococcus aureus [7]): 0.016 µg/mL (≈ 0.0426 µM) | Activity (Staphylococcus aureus [8]): Active | IC50 [9]: 42.3 nM | Activity (Staphylococcus aureus [10]): Active | MIC (Staphylococcus aureus [11]): 0.016 µg/mL (≈ 0.0426 µM) | clearance [12]: 30 mL/min/kg | MIC (Staphylococcus aureus [13]): 0.008 µg/mL (≈ 0.0213 µM) | AUCt [14]: 4414.1 ng·h/mL | MIC (Staphylococcus aureus [15]): 0.25 µg/mL (≈ 0.666 µM) | half-life at 1 µM [16]: 34.5 min | MIC (Staphylococcus aureus [17]): 0.016 µg/mL (≈ 0.0426 µM) | CLint scaled at 1 µM [18]: 319 mL/min/kg | log(activity) (Staphylococcus aureus [19]): 5 | Cmax [20]: 1810 ng/mL | Activity (Staphylococcus aureus [21]): Active | Cmax [22]: 711 ng/mL | MIC (Enterococcus faecium): > 32 µg/mL | MIC (Staphylococcus aureus [23]): 1 µg/mL (≈ 2.66 µM) | MIC (Staphylococcus aureus [24]): 0.008 µg/mL (≈ 0.0213 µM) | MIC (Staphylococcus aureus [25]): 0.008 µg/mL (≈ 0.0213 µM) | MIC (Staphylococcus aureus [26]): 0.008 µg/mL (≈ 0.0213 µM) | MIC (Staphylococcus aureus [27]): 0.016 µg/mL (≈ 0.0426 µM) | log(activity) (Staphylococcus aureus [28]): 7.8 | MIC (Enterococcus faecalis): > 32 µg/mL | log(activity) (Staphylococcus aureus [29]): -7.1 | MIC (Candida albicans): > 32 µg/mL | bioavailability [30]: 40.7% | MIC (Acinetobacter baumannii): > 32 µg/mL | MIC (Staphylococcus aureus [31]): 0.016 µg/mL (≈ 0.0426 µM) | Activity (Staphylococcus aureus [32]): Active | CL/F [33]: 71.7 mL/min/kg | Activity (Staphylococcus aureus [34]): 10.4 mm2 | Activity (Staphylococcus aureus [35]): 5.9 10^-10No_unit | t1/2 [36]: 402 min | MIC (Escherichia coli): > 32 µg/mL | Activity (Staphylococcus aureus [37]): <2.6 10^-10No_unit | CLint scaled at 1 µM [38]: 50.4 mL/min/kg | Activity (Staphylococcus aureus [39]): 1.6 10^-9No_unit
